Literature values in patent US20230000073A1, “A COMPOSITION FOR ACTIVATING PLANT'S NATURAL DEFENSE MECHANISMS TO EXTEND THE SHELF LIFE AND METHODS THEREOF” (GREENPOD LABS PRIVATE LIMITED, priority 2019, published 2023).
Entries after “also recorded” stand apart in the source; their conditions may differ. Read-outs that look alike come from different tables or passages of the source.

O=C(O)c1ccccc1O [SA, 2-hydroxybenzoic acid]
Reported results (effects of SA) (Watermelon): Increase in GPX, APX, CAT, SOD & GR activity, | Reported results (effects of SA) (Orange): SOD, GR, APX & DHAR activity & ASA/DHASA | Reported results (effects of SA) (Strawberry): Decay, Ripenings, weight loss reduction | Reported results (effects of SA) (Apple): Decreased ethylene, LOX activity, MDA content, DI, | Reported results (effects of SA) (Apple; combined with microbial antagonist): Enchaned the biological efficacy of antagonist | Reported results (effects of SA) (Tomato): Development of red color, regulation of ACS genes expression | Reported results (effects of SA) (Sweet cherry): direct antifungal activity | Reported results (effects of SA) (Banana): Decrease in fruit softening pulp/peel ratio, reducing sugar content, | Reported results (effects of SA) (Kiwifruit): Inhibition of ethylene production, ripening &; also recorded: decay control | Reported results (effects of SA) (Fresh-cut Chestnut): Delayed discoloration, maintained edible quality
